In patent US7880002B2, “Substituted piperazinyl-pyrrolidine compounds useful as chemokine receptor antagonists” (Millennium Pharmaceuticals, Inc., priority 2004, dated 2011):

biological target: T1, CCR1 (Homo sapiens, UniProt P32246); experiment: CCR1 inhibition (THP-1 FLIPR assay / THP-1 whole cell radioligand binding assay; the patent does not say which gave the values); format: cell-based; conditions: threshold list, less than 100 nm; compounds of Table 1; read-out: inhibitory activity
T1 construct: a monocytic derived cell line that endogenously expresses CCR1; host or cells: THP-1 cells
T1 sequence (P32246 1-355): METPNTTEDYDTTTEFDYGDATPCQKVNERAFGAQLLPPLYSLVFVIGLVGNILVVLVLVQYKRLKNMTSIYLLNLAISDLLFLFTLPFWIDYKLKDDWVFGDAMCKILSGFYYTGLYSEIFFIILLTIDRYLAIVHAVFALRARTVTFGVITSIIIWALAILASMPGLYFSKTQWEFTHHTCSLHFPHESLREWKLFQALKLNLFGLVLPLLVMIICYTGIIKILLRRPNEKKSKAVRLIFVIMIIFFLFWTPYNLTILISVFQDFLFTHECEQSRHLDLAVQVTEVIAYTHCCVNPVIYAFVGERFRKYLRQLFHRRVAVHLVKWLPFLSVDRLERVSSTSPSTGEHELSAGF
Protocol: The primary screening assay is a FLIPR® (Fluorometric Imaging Plate Reader, available from Molecular Devices Corporation, Sunnyvale, Calif.) assay using THP-1 cells (ATCC, Catalog No. TIB 202), a monocytic derived cell line that endogenously expresses CCR1.
The cells were resuspended at 1×10^6 cells/ml in dye loading media (growth media (RPMI+10% FBS (Fetal Bovine serum)+5.5×10^−5M 2-mercaptoethanol)+10 mM HEPES (N-2-hydroxyethylpiperazine-N′-2-ethane-sulfonic acid)+2.5 mM probenecid+fluo-3 (1:250)). The cells were incubated for 1 hour at 37° C. and then washed in FLIPR wash buffer (100 mL 10× HBSS (Hanks Buffered Saline Solution) (w/Ca++/Mg++)+20 mL 1M HEPES+1 g BSA+10 mL 250 mM probenecid+water (to make 1 L)) and plated at 50,000 cells/well in black/clear 384 well plates. The plates were transferred to FLIPR where the ability of different concentrations of compounds to inhibit RANTES induced calcium flux was assessed. Inhibition of the CCR1 response was reflected by a decrease of the fluorescence signal relative to the positive controls (RANTES alone).
THP-1 Whole Cell Radioligand Binding Assay
The cells were washed with PBS (phosphate buffered saline) and resuspended in binding buffer (10 mM HEPES pH 7.2, 1× HBSS (w/Ca^2+, Mg^2+) 0.5% BSA, 0.02% Na-azide) at 4×10^6 cells/ml (for 200, 000 cells/well). Cells were incubated with 0.1 to 0.2 nM [^125I]-labeled MIP-1α with or without unlabeled competitor (MIP-1α) or various concentrations of compounds for 60 minutes at room temperature. The assay was terminated by vacuum filtration through glass fiber filters (GF/B, Packard) which were presoaked in 0.3% polyethyleneimine. The filters were washed with wash buffer (10 mM HEPES, pH 7.2, 1 mM CaCl2, 5 mM MgCl2 0.5M NaCl), dried and the amount of bound radioactivity was determined by scintillation counting.

IC50	Structure (SMILES)
< 100 nM	O=C(c1ccc(Cl)cc1)N1CCN([C@H]2CN(c3nc(C(F)(F)F)nc4cc(F)c(F)cc34)C[C@@H]2O)CC1 (stereo in doubt) [Example 179, 4-[4-(4-chlorobenzoyl)piperazin-1-yl]-1-[6,7-difluoro-2-(trifluoromethyl)quinazolin-4-yl]pyrrolidin-3-ol]
< 100 nM	N#Cc1ccc2nc(C(F)(F)F)nc(N3C[C@@H](O)[C@H](N4CCN(C(=O)c5ccc(Cl)cc5)CC4)C3)c2c1 (stereo in doubt) [Example 203, 4-{3-[4-(4-chlorobenzoyl)piperazin-1-yl]-4-hydroxypyrrolidin-1-yl}-2-(trifluoromethyl)quinazoline-6-carbonitrile]
< 100 nM	O=C(c1ccc(Cl)cc1)N1CCN([C@@H]2CN(c3nc(-c4ccccc4)nc4ccccc34)C[C@H]2O)CC1 [Example 101, 4-[4-(4-chlorobenzoyl)piperazin-1-yl]-1-(2-phenylquinazolin-4-yl)pyrrolidin-3-ol]
< 100 nM	Cc1nc2ccccc2nc1N1C[C@H](O)[C@@H](N2CCN(C(=O)c3ccc(Cl)cc3)CC2)C1 (stereo in doubt) [Example 125, 4-[4-(4-chlorobenzoyl)piperazin-1-yl]-1-(3-methylquinoxalin-2-yl)pyrrolidin-3-ol]
< 100 nM	O[C@H]1CN(c2nc(C(F)(F)F)nc3ccccc23)C[C@@H]1N1CCN(Cc2ccc(Cl)cc2)CC1 (stereo in doubt) [Example 95, 4-[4-(4-chlorobenzyl)piperazin-1-yl]-1-[2-(trifluoromethyl)quinazolin-4-yl]pyrrolidin-3-ol]
< 100 nM	O=C(c1ccc(Cl)cc1)N1CCN([C@H]2CN(c3nc(C(F)(F)F)nc4ccc([N+](=O)[O-])cc34)C[C@@H]2O)CC1 (stereo in doubt) [Example 188, 4-[4-(4-chlorobenzoyl)piperazin-1-yl]-1-[6-nitro-2-(trifluoromethyl)quinazolin-4-yl]pyrrolidin-3-ol]
< 100 nM	CC(C)c1cc(C(F)(F)F)nc(N2C[C@@H](O)[C@H](N3CCN(C(=O)c4ccc(Cl)cc4)CC3)C2)n1 (stereo in doubt) [Example 123, 4-[4-(4-chlorobenzoyl)piperazin-1-yl]-1-[4-isopropyl-6-(trifluoromethyl)pyrimidin-2-yl]pyrrolidin-3-ol]
< 100 nM	O=C(c1ccc(Cl)cc1)N1CCN([C@H]2CN(c3cc(C(F)(F)F)c4ccccc4n3)C[C@@H]2O)CC1 (stereo in doubt) [Example 127, 4-[4-(4-chlorobenzoyl)piperazin-1-yl]-1-[4-(trifluoromethyl)quinolin-2-yl]pyrrolidin-3-ol]
< 100 nM	O=C(c1ccc(Cl)cc1)N1CCN([C@H]2CN(c3cccc(C(F)(F)F)n3)C[C@@H]2O)CC1 [Example 79]
< 100 nM	O=C(c1ccc(Cl)cc1)N1CCN([C@@H]2CN(c3nccc(C(F)(F)F)n3)C[C@H]2O)CC1 (stereo in doubt) [Example 3, 4-[4-(4-chlorobenzoyl)piperazin-1-yl]-1-[4-(trifluoromethyl)pyrimidin-2-yl]pyrrolidin-3-ol]
< 100 nM	O=C(c1ccc(Cl)cc1)N1CCN([C@@H]2CN(c3nc(C(F)(F)F)nc4ccc(-c5nn[nH]n5)cc34)C[C@H]2O)CC1 (stereo in doubt) [Example 204, 4-[4-(4-chlorobenzoyl)piperazin-1-yl]-1-[6-(2H-tetrazol-5-yl)-2-(trifluoromethyl)quinazolin-4-yl]pyrrolidin-3-ol]
< 100 nM	Cc1cc(C(F)(F)F)nc(N2C[C@@H](O)[C@H](N3CCN(Cc4ccc(Cl)cc4)CC3)C2)n1 (stereo in doubt) [Example 108, 4-[4-(4-chlorobenzyl)piperazin-1-yl]-1-[4-methyl-6-(trifluoromethyl)pyrimidin-2-yl]pyrrolidin-3-ol]
< 100 nM	O=C(c1ccc(Cl)cc1)N1CCN([C@H]2CN(c3ncnc4cc(C(F)(F)F)ccc34)C[C@@H]2O)CC1 (stereo in doubt) [Example 132, 4-[4-(4-chlorobenzoyl)piperazin-1-yl]-1-[7-(trifluoromethyl)quinazolin-4-yl]pyrrolidin-3-ol]
